Data reported in US12653872B2, “Mimotopes of alpha-synuclein and vaccines thereof for the treatment of synucleinopathy” (AC Immune SA, priority 2008, dated 2026).

Legend:
[1] = test system: monoclonal antibody specific for human alpha-synuclein at position 115-122 (AFFiRiS3/9, A509); experiment: In vitro inhibition assay (ELISA): peptide competes with binding of the antibody to the coated original epitope; design: species or system mouse; settings: for Inhibition: competition code, OD at 40 μg peptide compared to original peptide; for competition in inhibition ELISA: 40 μg peptide, compared to original peptide p4448, FIG. 3
Experimental: 2. In Vitro Inhibition Assay (ELISA)
Different amounts of peptides (concentrations ranging from 40 μg to 0.3 μg (serial dilutions), as indicated in the respective figures) derived from Phage Display were incubated with the monoclonal antibody that was used for the screening procedure. Peptides diminishing subsequent binding of the antibody to the original human alpha-synuclein epitope (amino acids: 115-122 of human alpha-synuclein protein) coated on ELISA plates were considered as inhibiting in this assay.
Weak inhibition means more peptide is required to lower AB binding than with the original epitope; strong inhibition means similar peptide amounts are required for mimotope and original epitope for lowering AB binding. Mimotopes are compared to the original peptide as standard. OD at 40 μg peptide used in the assay is used to calculate the competition capacity compared to original peptide.

[2] = test system: monoclonal antibody specific for human alpha-synuclein at position 115-122 (AFFiRiS3/9, A509); experiment: In vitro binding assay (ELISA): peptide-BSA on plate, incubated with the screening monoclonal antibody; design: species or system mouse; settings: FIG. 1 and FIG. 2
Source text: 1. In Vitro Binding Assay (ELISA)

[3] = test system: injected peptide (peptide-BSA conjugate); experiment: Mimotope-KLH vaccination of mice: serum titer against injected peptide (ELISA); type: in vivo, C57/Bl6 mice; settings: for immune response against injected peptide: C57/Bl6 mice, 30 μg peptide-KLH s.c., alum, repeated vaccination; for titers upon vaccination of mice: FIG. 2 legend
Experimental: (§1) Inhibiting as well as non-inhibiting peptides were coupled to KLH and injected into mice (wildtype C57/Bl6 mice; subcutaneous injection into the flank) together with an appropriate adjuvant (aluminium hydroxide). Animals were vaccinated 4-6 times in biweekly intervals and sera were taken biweekly as well. Titers to injected peptides as well as to an irrelevant peptide were determined with every serum. Titers against the recombinant human alpha-synuclein protein and recombinant human beta-synuclein were determined starting with Serum 3 respectively. Pooled sera were tested against the original human alpha-synuclein epitope (aa115-122). In general sera were analysed by reaction against peptides coupled to Bovine Serum Albumin (BSA) and recombinant full length proteins which were immobilised on ELISA plates. Titers were determined using anti mouse IgG specific antibodies. For detailed results see FIGS. 4A, 4B, 5A and 5B.
(§2) Female C57/Bl6 mice, 5-6 mice per group, were subcutaneously immunized with 30 μg peptide coupled to KLH. Control groups were administered p4448-KLH conjugate. As adjuvant alum was used (always 1 mg per mouse). […] The in vitro ELISA assay to determine the antibody titer was performed with sera of single mice or pooled sera (see FIGS. 5A and 5B) after each vaccination in a two week interval (see FIGS. 4A, 4B, 5A and 5B, respectively). The wells of the ELISA plate were coated with mimotope-BSA conjugate and an irrelevant peptide-BSA conjugate (negative control). The positive control was performed by reaction of the parental antibody with the respective mimotope-BSA conjugate. The detection was performed with anti-mouse IgG. Additionally, recombinant proteins were immobilised on ELISA plates and sera reacted accordingly.

irrelevant peptide p1253 = experiment: Mimotope-KLH vaccination of mice: serum titer against irrelevant peptide (ELISA); type: in vivo; settings: C57/Bl6 mice, alum
Experimental: as §1, §2

[4] = test system: recombinant human alpha-synuclein protein; experiment: Mimotope-KLH vaccination of mice: serum titer against recombinant alpha-synuclein (ELISA); type: in vivo, C57/Bl6 mice; settings: pooled sera after 4 vaccinations; FIG. 5B
Experimental: as §1, §2

[5] = test system: recombinant human beta-synuclein; experiment: Mimotope-KLH vaccination of mice: serum titer against recombinant beta-synuclein (ELISA); type: in vivo, C57/Bl6 mice; settings: pooled sera after 4 vaccinations, FIG. 5B
Experimental: as §1, §2

[6] = test system: human a-syn on brain sections of mice overexpressing human a-syn; experiment: In situ testing: immunohistochemistry with mimotope-induced sera on mouse brain sections; settings: for potential to induce a-syn specific antibodies: vaccines based on the peptide
Experimental: Selected sera eliciting an a-syn cross reactivity were also tested for the ability to detect human a-syn on mouse brain sections in situ. For detailed results see FIGS. 6A, 6B and 6C.
Mimotopes eliciting an a-syn specific immune response can also detect a-syn immunoreactive inclusions in transgenic mouse brain tissue. As depicted in FIGS. 6A, 6B and 6C, sera derived from mimotope vaccinated animals are able to stain a-syn positive structures present on mouse brain sections from animals overexpressing human a-syn. Briefly, sera positive for human a-syn reactivity in ELISA have been used for immunohistochemistry (IHC). Paraffin embedded […] sections of mouse brain, mounted on Superfrost Plus glass slides, were subjected to IHC. Sections were incubated with sera (dilution 1:100 and 1:400 in PBS) and subsequently stained according to standard protocols for immunohistochemistry using VECTASTAIN™ ABC Systems (which is an Avidin-Biotin Complex Immunohistochemical Staining Kit from Vector Laboratories), DAB and MOM blocking (all reactions have been performed using commercially available reagents obtained from Vector labs respectively and have been performed according to manufacturer's protocols). Counterstaining was performed with Haematoxylin. Slides were mounted in Entellan and subsequently documented using conventional brightfield microscopy. A monoclonal antibody specific for human a-syn (LB509, Covance) has been used as a positive control for synuclein detection at a final dilution of 1/250.

In the case of CDAPVTPDT [p4563], the Inhibition [1] is reported as 1 (Weaker than original epitope (OD of 40 μg peptide below 5 times of original peptide)).

For CDAPVYPDG [p4570], the Inhibition [1] was 1 (Weaker than original epitope (OD of 40 μg peptide below 5 times of original peptide)).

CDHPVHPDS [p4554] was tested, and the Inhibition [1] was 1 (Weaker than original epitope (OD of 40 μg peptide below 5 times of original peptide)).

In the case of CDHPVTPDR [p4559], the Inhibition [1] is reported as 1 (Weaker than original epitope (OD of 40 μg peptide below 5 times of original peptide)).

For CDLPVTPDR [p4566], the Inhibition [1] was 1 (Weaker than original epitope (OD of 40 μg peptide below 5 times of original peptide)).

With CDMPVDPDN [p4448, reference compound] the “binding to / detection by the monoclonal antibody in ELISA” value (“binding to / detection” for short) [2] was “are detected by the antibody”, the “immune response against injected peptide” value [3] was “elicited immune responses against the injected peptide” and the “immune response against unrelated sequence p1253” value (irrelevant peptide p1253) was “failed to induce an unspecific immune response”. The “reactivity of induced sera with alpha-synuclein” value [4] was “show titers against alpha-synuclein”, the “reactivity of induced sera with beta-synuclein” value (shortened to “reactivity … with beta-synuclein”) [5] was “detect alpha and beta-synuclein” and the “reactivity … with beta-synuclein” value ([5]; listed as original epitope) was “also detected the full length beta-synuclein protein”.

For CDMPVDPGS [p4450], the “binding to / detection” value [2] was “are not detected”.

For CDMPVLPD [p4457], the “reactivity of induced sera with alpha-synuclein” value [4] was “show titers against alpha-synuclein”.

With CDMPVLPDG [p4497] the Inhibition [1] was 1 (Weaker than original epitope (OD of 40 μg peptide below 5 times of original peptide)).

For CDMPVLPDN [p4463], the Inhibition [1] was 2 (strong inhibition (as original epitope; OD of 40 μg peptide below 2 times of original peptide)) and the “reactivity of induced sera with alpha-synuclein” value [4] was “show titers against alpha-synuclein”.

With CDMPVSPDR [p4555] the Inhibition [1] was 1 (Weaker than original epitope (OD of 40 μg peptide below 5 times of original peptide)).

CDMPVTPDT [p4562] was tested, and the Inhibition [1] was 2 (strong inhibition (as original epitope; OD of 40 μg peptide below 2 times of original peptide)) and the “potential to induce a-syn specific antibodies” value (from here on “potential”) [6] was “potential to induce a-syn specific antibodies”.

With CDMPVWPDG [p4569] the Inhibition [1] was 1 (Weaker than original epitope (OD of 40 μg peptide below 5 times of original peptide)).

For CDNPVHPEN [p4492], the “competition in inhibition ELISA” value [1] was “do not show competition”.

CDQPVLPD [p4456] was tested, and the “immune response against injected peptide” value [3] was “elicited immune responses against the injected peptide”, the “immune response against unrelated sequence p1253” value (irrelevant peptide p1253) was “failed to induce an unspecific immune response” and the “potential” value [6] was “potential to induce a-syn specific antibodies”.

With CDQPVLPDG [p4496] the Inhibition [1] was 1 (Weaker than original epitope (OD of 40 μg peptide below 5 times of original peptide)).

In the case of CDQPVLPDN [p4462], the Inhibition [1] is reported as 2 (strong inhibition (as original epitope; OD of 40 μg peptide below 2 times of original peptide)).

With CDQPVYPDI [p4557] the “binding to / detection” value [2] was “weaker binding than the original peptide p4448”, the Inhibition [1] was 1 (Weaker than original epitope (OD of 40 μg peptide below 5 times of original peptide)) and the “titers upon vaccination of mice” value [3] was > 1/20000.

With CDRPVAPEG [p4553] the “binding to / detection” value [2] was “strong binding” and the “titers upon vaccination of mice” value [3] was > 1/20000.

With CDRPVQPDR [p4571] the Inhibition [1] was 1 (Weaker than original epitope (OD of 40 μg peptide below 5 times of original peptide)).

For CDRPVTPDN [p4491], the “competition in inhibition ELISA” value [1] was “show similar competition as the original peptide p4448” and the Inhibition [1] was 7.

CDRPVYPDI [p4558] was tested, and the Inhibition [1] was 2 (strong inhibition (as original epitope; OD of 40 μg peptide below 2 times of original peptide)).

With CDSPVHPDT [p4567] the Inhibition [1] was 1 (Weaker than original epitope (OD of 40 μg peptide below 5 times of original peptide)).

For CDSPVLPDG [p4498], the Inhibition [1] was 1 (Weaker than original epitope (OD of 40 μg peptide below 5 times of original peptide)), the “a-syn staining by induced serum in immunohistochemistry” value ([6]; murine hippocampus, human a-syn transgenic, sera diluted 1:100 and 1:400, FIG. 6C) was “specific a-syn staining similar to the staining present in FIG. 6A” and the “potential” value [6] was “potential to induce a-syn specific antibodies”.

For CDSPVLPDN [p4464], the Inhibition [1] was 2 (strong inhibition (as original epitope; OD of 40 μg peptide below 2 times of original peptide)).

In the case of CDSPVVPDN [p4564], the Inhibition [1] is reported as 1 (Weaker than original epitope (OD of 40 μg peptide below 5 times of original peptide)).

CDSPVWAEN [p4466] was tested, and the “immune response against injected peptide” value [3] was “elicited immune responses against the injected peptide” and the “immune response against unrelated sequence p1253” value (irrelevant peptide p1253) was “failed to induce an unspecific immune response”.

CDTPVIPDN [p4495] was tested, and the Inhibition [1] was 1 (Weaker than original epitope (OD of 40 μg peptide below 5 times of original peptide)).

CDTPVLAEN [p4467] was tested, and the “immune response against injected peptide” value [3] was “elicited immune responses against the injected peptide” and the “immune response against unrelated sequence p1253” value (irrelevant peptide p1253) was “failed to induce an unspecific immune response”.

CDTPVLPDS [p4561] was tested, and the Inhibition [1] was 2 (strong inhibition (as original epitope; OD of 40 μg peptide below 2 times of original peptide)).

In the case of CDTPVYPDN [p4494], the Inhibition [1] is reported as 2 (strong inhibition (as original epitope; OD of 40 μg peptide below 2 times of original peptide)).

In the case of CDVPVLPDN [p4493], the Inhibition [1] is reported as 2 (strong inhibition (as original epitope; OD of 40 μg peptide below 2 times of original peptide)).

For CEMPVDPDN [P4648], the Inhibition [1] was 1 (Weaker than original epitope (OD of 40 μg peptide below 5 times of original peptide)).

With CHDRPVTPDN [p4490] the “competition in inhibition ELISA” value [1] was “show similar competition as the original peptide p4448” and the Inhibition [1] was 2 (strong inhibition (as original epitope; OD of 40 μg peptide below 2 times of original peptide)).

CYDRPVQPDR [p4572] was tested, and the Inhibition [1] was 1 (Weaker than original epitope (OD of 40 μg peptide below 5 times of original peptide)).

In the case of DMPVDPDN, the “reactivity … with beta-synuclein” value [5] is reported as “did not distinguish between the two recombinant synuclein proteins”.

In the case of DMPVDPDNC [p4449], the “binding to / detection” value [2] is reported as “are detected by the antibody”.

For DMPVDPGSC [p4451], the “binding to / detection” value [2] was “are not detected”.

For DMPVLPDC [p4641], the Inhibition [1] was 2 (strong inhibition (as original epitope; OD of 40 μg peptide below 2 times of original peptide)).

For DQPVLPDC [p4640], the Inhibition [1] was 2 (strong inhibition (as original epitope; OD of 40 μg peptide below 2 times of original peptide)).

“p4447: Human beta-syn (Full length; NCBI Acc. No. NP_001001502)” was tested, and the “binding to / detection” value [2] was “are not detected”.
